Experimental data as given in PMC5794259, “Novel ATP-cone-driven allosteric regulation of ribonucleotide reductase via the radical-generating subunit” (eLife, 2018).
Values joined by “and” are separate entries in the source; they are usually repeats but may differ in a detail not shown here. Identical values can stand only once.

What was measured:
[1] = test system: L. blandensis class I RNR; test: Four-substrate activity assay, allosteric specificity regulation; type: biochemical, Leeuwenhoekiella blandensis; details: all four substrates 0.5 mM each, effector 2 mM, 1 µM NrdB and 4 µM NrdA
Protocol: (§1) Enzyme assays were performed at room temperature in 50 mM Tris-HCl at pH 8 in volumes of 50 μl. Reaction conditions, giving maximal activity were determined experimentally. […] Mixtures of 0.5 μM NrdA and 2 μM wild type NrdB or NrdB∆99 (for determination of s-site KL) (Figure 3a–b) or 0.5 μM of NrdB and 2 uM NrdA (for determination of a-site KL), (Figure 3c–f) were used. Some components were explicitly varied in specific experiments. Generally, 0.8 mM CDP was used as substrate. […] When dTTP was used as an s-site effector, 0.5 mM or 0.8 mM GDP was used as substrate. In four substrate assays, the four substrates CDP, ADP, GDP and UDP were simultaneously present in the mixture at concentrations of 0.5 mM each. The substrate mixture was added last to start the reactions. Certain assays were performed in the presence of Mn(CH3COO)2 or FeNH4(SO4): 20 μM of the indicated metal was added to 10 μM NrdB or NrdB∆99 protein, incubated for 10 min, mixed with NrdA and added to the reaction mixture.
(§2) Enzyme reactions were incubated for 10–30 min and then stopped by the addition of methanol. The chosen incubation time gave a maximum substrate turnover of 30%. […] Compound identification was achieved by comparison with injected standards. Relative quantification was obtained by peak height measurements in the chromatogram (UV absorbance at 271 nm) in relation to standards. Specific activities of either NrdA (Figure 2a–b) or NrdB (Figure 2c–f) were determined. Specific activities varied between protein preparations. In some cases the data was standardized to activity percent, where 100% was determined as maximum enzyme activity in a specific condition.

[2] = target: L. blandensis RNR, a-site (NrdB-linked ATP-cone) (Leeuwenhoekiella blandensis, UniProt A3XHF9); test: Enzyme activity assay with wild type NrdB (overall activity regulation, a-site); type: biochemical; details: for interaction with the a-site (effect on GDP reduction): 2 mM nucleotide, s-site saturating dTTP (2 mM), 4 µM NrdA and 1 µM NrdB
L. blandensis RNR, a-site (NrdB-linked ATP-cone), sequence (A3XHF9 entry or part of it, one chain of several): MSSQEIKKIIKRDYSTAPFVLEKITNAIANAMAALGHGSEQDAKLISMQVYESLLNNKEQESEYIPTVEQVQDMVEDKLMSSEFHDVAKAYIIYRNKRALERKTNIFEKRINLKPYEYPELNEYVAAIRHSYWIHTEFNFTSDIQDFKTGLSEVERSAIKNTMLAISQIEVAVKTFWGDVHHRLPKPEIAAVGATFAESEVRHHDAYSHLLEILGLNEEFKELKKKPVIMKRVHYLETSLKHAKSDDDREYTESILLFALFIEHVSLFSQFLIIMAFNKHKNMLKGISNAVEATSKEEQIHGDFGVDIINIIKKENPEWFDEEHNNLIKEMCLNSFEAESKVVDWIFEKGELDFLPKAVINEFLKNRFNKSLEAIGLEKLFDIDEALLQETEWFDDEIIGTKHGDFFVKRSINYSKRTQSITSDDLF
Protocol: as §1, §2
(§3) From a direct plot of activity versus concentration of effector, the KL values for binding of effectors to the s-site and the a-site, were calculated in SigmaPlot using the equation: V=Vmax×[dNTP]/(KL+[dNTP]) and Ki for non-competitive dATP inhibition at NrdB was calculated in Sigmaplot using the equation: V=Vmax/(1+[dNTP]/Ki)

s-site in NrdA = target: T1, s-site in NrdA (Leeuwenhoekiella blandensis, UniProt A3XHF8); test: Enzyme activity assay, CDP reduction, effector titration with NrdB∆99 (s-site); type: biochemical; details: 0.5 µM NrdA and 2 µM NrdB∆99, read-out: KL (s-site), concentration of allosteric effector that gives half maximal enzyme activity
T1 sequence (A3XHF8 1-600): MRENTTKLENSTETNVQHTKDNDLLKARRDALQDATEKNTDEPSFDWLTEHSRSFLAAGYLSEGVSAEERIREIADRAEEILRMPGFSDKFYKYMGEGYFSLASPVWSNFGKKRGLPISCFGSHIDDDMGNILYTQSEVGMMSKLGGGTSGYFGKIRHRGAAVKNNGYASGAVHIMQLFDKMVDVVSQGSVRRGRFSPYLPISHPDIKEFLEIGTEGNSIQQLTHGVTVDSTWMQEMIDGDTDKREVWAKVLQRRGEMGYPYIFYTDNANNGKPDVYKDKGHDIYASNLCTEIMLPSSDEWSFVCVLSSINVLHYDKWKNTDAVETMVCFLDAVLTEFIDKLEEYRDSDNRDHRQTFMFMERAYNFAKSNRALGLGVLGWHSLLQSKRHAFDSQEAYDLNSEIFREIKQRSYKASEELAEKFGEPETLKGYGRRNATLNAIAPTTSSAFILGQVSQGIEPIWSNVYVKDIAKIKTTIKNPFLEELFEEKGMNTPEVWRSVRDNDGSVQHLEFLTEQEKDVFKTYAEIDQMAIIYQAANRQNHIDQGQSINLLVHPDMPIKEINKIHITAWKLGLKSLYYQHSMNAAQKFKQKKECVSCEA
T1 sequence (A3XHF9 100-427 partner): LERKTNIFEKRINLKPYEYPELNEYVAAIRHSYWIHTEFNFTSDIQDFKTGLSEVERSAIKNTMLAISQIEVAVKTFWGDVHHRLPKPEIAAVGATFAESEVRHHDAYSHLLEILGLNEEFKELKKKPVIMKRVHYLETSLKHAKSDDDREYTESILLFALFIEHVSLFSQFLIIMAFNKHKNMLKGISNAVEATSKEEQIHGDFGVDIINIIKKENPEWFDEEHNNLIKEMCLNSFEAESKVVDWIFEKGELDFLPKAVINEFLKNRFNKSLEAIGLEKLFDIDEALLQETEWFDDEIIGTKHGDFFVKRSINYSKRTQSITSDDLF
Protocol: (§4) Enzyme assays were performed at room temperature in 50 mM Tris-HCl at pH 8 in volumes of 50 μl. Reaction conditions, giving maximal activity were determined experimentally. […] Mixtures of 0.5 μM NrdA and 2 μM wild type NrdB or NrdB∆99 (for determination of s-site KL) (Figure 3a–b) or 0.5 μM of NrdB and 2 uM NrdA (for determination of a-site KL), (Figure 3c–f) were used. Some components were explicitly varied in specific experiments. Generally, 0.8 mM CDP was used as substrate. […] When dTTP was used as an s-site effector, 0.5 mM or 0.8 mM GDP was used as substrate. […]
Enzyme reactions were incubated for 10–30 min and then stopped by the addition of methanol. […] Relative quantification was obtained by peak height measurements in the chromatogram (UV absorbance at 271 nm) in relation to standards. Specific activities of either NrdA (Figure 2a–b) or NrdB (Figure 2c–f) were determined. […] In some cases the data was standardized to activity percent, where 100% was determined as maximum enzyme activity in a specific condition.
as §3

NrdB [3] = target: T2, NrdB (Leeuwenhoekiella blandensis, UniProt A3XHF9); test: Isothermal titration calorimetry (ITC), nucleotide binding to NrdB; details: for -TΔS / ΔG / Kd / N (binding stoichiometry) / ΔH: 10°C; for Kd: one-set-of-sites model; for N (binding stoichiometry): per NrdB monomer, for dATP kept constant N = 2, 59% active protein; for lower affinity compared to dATP: from Kd, ITC
T2 sequence (A3XHF9 entry or part of it): as the sequence (A3XHF9 entry or part of it, one chain of several) above
Protocol: Isothermal titration calorimetry (ITC) experiments were carried out on a MicroCal PEAQ-ITC system (Malvern Instruments Ltd) in a buffer containing 25 mM HEPES (pH 7.65), 150 mM NaCl, and 10% glycerol, 2 mM tris(2-carboxyethyl)phosphine, and 5 mM MgCl2. Measurements were done at 10°C. The initial injection volume was 0.4 μl over a duration of 0.8 s. All subsequent injection volumes were 2–2.5 μl over 4–5 s with a spacing of 150 s between the injections. Data for the initial injection were not considered. For dATP binding analysis, the concentration of NrdB in the cell was 12 µM and dATP in syringe 120 or 140 µM. Reverse titrations were performed with 113 µM NrdB in the syringe and 12 or 30 µM dATP in the cell. For titration of dATP into NrdB∆99, protein concentration in the cell and dATP concentration in the syringe were 50 µM and 900 µM respectively. […] For titration of ATP into NrdB, cell and syringe concentrations were 50 and 1600 µM respectively. The data were analyzed using the built-in one set of sites model of the MicroCal PEAQ-ITC Analysis Software (Malvern Instruments Ltd). A fixed ligand/protein stoichiometry of 2 was used for dATP to NrdB titrations. Standard deviations in thermodynamic parameters, N and Kd were estimated from the fits of three different titrations.

[4] = test system: L. blandensis RNR (wild-type NrdB or NrdB∆99); test: Metal-dependency of enzyme activity; type: biochemical, Leeuwenhoekiella blandensis; details: metal added to cultures or 20 µM divalent metal ions to 10 µM NrdB
Protocol: Overnight cultures of E. coli BL21(DE3)/pET28a(+) bearing pET-nrdA, pET-nrdB and pET-nrdB∆99 were diluted to an absorbance at 600 nm of 0.1 in LB (Luria-Bertani) liquid medium, containing kanamycin (50 μg/ml) and shaken vigorously at 37°C. At an absorbance at 600 nm of 0.8, isopropyl-β-D-thiogalactopyranoside (Sigma) was added to a final concentration of 0.01 mM for NrdA expression and 0.5 mM for NrdB and NrdB∆99 expression. For particular experiments, 0.5 mM MnSO4 or 0.5 mM FeNH4(SO4)2 or the combination of both metals (0.4 mM and 0.25 mM respectively) were added to NrdB∆99 cultures. The cells were grown overnight at 14°C for NrdA expression and 20°C for NrdB and NrdB∆99 expression and harvested by centrifugation.
as §4

NrdB [5] = target: T2, NrdB; test: GEMMA analysis of NrdB oligomers; details: for effect on NrdB oligomer equilibrium: 50 µM nucleotide, 0.1 mg/ml NrdB (~2 µM)
Protocol: In GEMMA, biomolecules are electrosprayed into gas phase, neutralized to singly charged particles, and the gas phase electrophoretic mobility is measured with a differential mobility analyzer. The mobility of an analyzed particle is proportional to its diameter, which therefore allows for quantitative analysis of the different particle sizes contained in a sample ([Kaufman et al., 1996]). The GEMMA instrumental setup and general procedures were as described previously ([Rofougaran et al., 2008]). NrdA, NrdB and NrdB∆99 proteins were equilibrated by Sephadex G-25 chromatography into a buffer containing 100 mM ammonium acetate, pH 7.8. In addition, 2 mM DTT was added to the NrdA protein solutions to increase protein stability. Prior to GEMMA analysis, the protein samples were diluted to a concentration of 0.025–0.1 mg/ml in a buffer containing 20 mM ammonium acetate, pH 7.5, 0.005% (v/v) Tween 20, nucleotides (when indicated), and magnesium acetate (equimolar to the total nucleotide concentration), incubated for 5 min at room temperature, centrifuged and applied to the GEMMA instrument. Protein concentrations higher than normally recommended for GEMMA were needed to see the larger oligomeric complexes and the experiments to measure NrdA-NrdB interactions were run at as low flow rate as possible (driven by 1.4 Psi pressure) to minimize false interactions that may appear with elevated protein concentration if the flow-rate recommended by the manufacturer is used (3.7 Psi). Most of our experiments were performed with a flow rate driven by 2 Psi.

Molecule: Nc1nc2c(ncn2[C@H]2C[C@H](O)[C@@H](COP(=O)(O)OP(=O)(O)OP(=O)(O)O)O2)c(=O)[nH]1 [dGTP]
- effect of s-site effector on substrate reduction [1]: stimulated the reduction of ADP and GDP

Molecule: Nc1ncnc2c1ncn2[C@@H]1O[C@H](COP(=O)(O)OP(=O)(O)O)[C@@H](O)[C@H]1O [ADP]
- interaction with the a-site (effect on GDP reduction) [2]: no effect

Molecule: Nc1ncnc2c1ncn2[C@@H]1O[C@H](COP(=O)(O)OP(=O)(O)OP(=O)(O)O)[C@@H](O)[C@H]1O [ATP]
- EC50 (s-site in NrdA): 30 µM
- EC50 [2]: 96 µM
- effect on enzyme activity ([2]; CDP reduction, 0.5 µM NrdA and 2 µM wild type NrdB): clearly activated the enzyme
- effect of s-site effector on substrate reduction [1]: stimulated the reduction of CDP and UDP
- -TΔS (NrdB [3]): 20 ± 4 kJ/mol
- ΔG (NrdB [3]): -24 kJ/mol
- Kd (NrdB [3]): 38 ± 2 µM
- N (binding stoichiometry) (NrdB [3]): 2.2 and 2.2 ± 0.4
- lower affinity compared to dATP (NrdB [3]): 38 fold

Molecule: Cc1cn([C@H]2C[C@H](O)[C@@H](COP(=O)(O)OP(=O)(O)OP(=O)(O)O)O2)c(=O)[nH]c1=O [dTTP]
- effect of s-site effector on substrate reduction [1]: stimulated the reduction of GDP

Molecule: CC(=O)[O-].CC(=O)[O-].[Mn+2] [Mn, Mn(CH3COO)2]
- effect of metal on catalytic activity [4]: increase in catalytic activity

Molecule: O=S(=O)([O-])[O-].O=S(=O)([O-])[O-].[Fe+2].[NH4+].[NH4+] [Fe^2+, FeNH4(SO4)]
- effect of metal on catalytic activity [4]: inhibition

Molecule: Nc1ncnc2c1ncn2[C@H]1C[C@H](O)[C@@H](COP(=O)(O)OP(=O)(O)OP(=O)(O)O)O1 [dATP]
- EC50 (s-site in NrdA): 1.4 µM
- effect on NrdB oligomer equilibrium (NrdB [5]): dramatically shifted the equilibrium towards tetramers β4
- EC50 (NrdB [5]; GEMMA, 2 Psi, NrdB (~1 μM), read-out: concentration at which NrdB tetramers reach half-maximum mass concentration): ~10 µM
- Ki [2]: 20 µM
- concentration at which inhibitory ([2]; CDP reduction, 0.5 µM NrdA and 2 µM wild type NrdB, activates at low concentrations): ≥ 30 µM
- -TΔS (NrdB [3]): 47 ± 10 kJ/mol
- ΔG (NrdB [3]): -33 kJ/mol
- ΔH (NrdB [3]): -79 kJ/mol and -79 ± 10 kJ/mol
- Kd (NrdB [3]): 1 ± 0.2 µM
- N (binding stoichiometry) (NrdB [3]): 2

Molecule: dADP
- effect on NrdB oligomer equilibrium (NrdB [5]): induced formation of NrdB tetramers, although less efficiently than with dATP
- interaction with the a-site (effect on GDP reduction) [2]: found to interact
- effect of titration on enzyme activity ([2]; CDP reduction (3 mM CDP), 2 µM NrdA and 0.5 µM NrdB): inhibited the enzyme activity, although less strongly than dATP
- -TΔS (NrdB [3]): 77 ± 8 kJ/mol
- ΔG (NrdB [3]): -26 kJ/mol
- ΔH (NrdB [3]): -103 kJ/mol and -103 ± 9 kJ/mol
- N (binding stoichiometry) (NrdB [3]): 2.1 and 2.1 ± 0.2
- lower affinity compared to dATP (NrdB [3]): 15 fold

Molecule: Nc1ncnc2c1ncn2[C@H]1C[C@H](O)[C@@H](COP(=O)(O)O)O1 [dAMP]
- interaction with the a-site (effect on GDP reduction) [2]: no effect

Molecule: Nc1ncnc2c1ncn2[C@@H]1O[C@H](COP(=O)(O)O)[C@@H](O)[C@H]1O [AMP]
- interaction with the a-site (effect on GDP reduction) [2]: no effect
